Measured values from patent US20250064717A1, “MANUFACTURE OF COSMETIC CAROTENOID COMPOSITIONS” (Unibar Corporation, priority 2022, published 2025).
Converted amounts (≈) assume the structure as drawn.

Legend:
[1] = system: Malassezia furfur (ATCC-14521); experiment: Antifungal culture microdilution MIC assay; type: cell-based; settings: ATCC14521, 50% reduction of fungal growth, 48-72 hours
Excerpt: (§1) The anti-fungal activity of CAP-50CR and CAP-1.5SE against Malassezia furfur and Candida albicans are compared with the anti-fungal drug ketoconazole by the minimum inhibitory concentration (“MIC”) method.
(§2) The inhibitory effect assay of CAP-50CR and CAP-1.5SE against Malassezia furfur and Candida albicans may be performed as per a culture microdilution reference method. Ketoconazole, an anti-fungal drug, may be used as the standard. Freeze-dried Candida albicans (ATCC-10231) and Malassezia furfur (ATCC-14521) strains may be used as well. A loopful culture of Malassezia furfur and Candida albicans may be streaked on SDA (Sabouraud Dextrose Agar), and incubated at 35±2° C. and 25±2° C. for 48-72 hours, respectively. Finally, cells may be suspended in a RPMI 1640 medium to obtain a final concentration of 1×10^6 CFU/mL. For the evaluation of inhibitory activity, the effect of CAP-50CR and CAP-1.5SE may be examined against strains of Malassezia furfur and Candida albicans cultured in 96-well microplates at different concentrations of 35±2° C. and 25±2° C., respectively, for 48-72 hours.
(§3) Sterility and growth control may also be used. Yeast growth may be determined in an Enzyme-Linked ImmunoSorbent Assay Microplate Reader at 530 nm. […]

[2] = system: Candida albicans (ATCC-10231); experiment: Antifungal culture microdilution MIC assay; type: cell-based; settings: ATCC10231, 50% reduction of fungal growth, 48-72 hours
Excerpt: as §1, §2, §3

SMILES: CC(=O)N1CCN(c2ccc(OCC3COC(Cn4ccnc4)(c4ccc(Cl)cc4Cl)O3)cc2)CC1 (centres unmarked) [Ketoconazole]
- MIC50 [1]: 0.48 µg/mL (≈ 0.903 µM)
- MIC50 [2]: 0.48 µg/mL (≈ 0.903 µM)
